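Five compound concentrations were applied to cells in 96-well plates for 48 hours; endpoints were derived by simple linear interpolation of the resulting dose-response curve. GI50 = concentration required for 50% inhibition of growth.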 The source made the active and inactive calls. Rule as the data show it: active = GI50 up to about 1.1 µM and inactive = higher.
Assays:
Experiment in all cases: DTP human tumour cell line panel, 48 h
[1] = system: 786-0
[2] = system: A498
[3] = system: A549
[4] = system: ACHN
[5] = system: BT-549
[6] = system: CAKI-1
[7] = system: CCRF-CEM
[8] = system: COLO 205
[9] = system: DLD-1
[10] = system: DMS-114
[11] = system: DMS-273
[12] = system: DU-145
[13] = system: EKVX
[14] = system: HCC 2998
[15] = system: HCT-116
[16] = system: HCT-15
[17] = system: HL-60
[18] = system: HOP-18
[19] = system: HOP-62
[20] = system: HOP-92
[21] = system: HT-29
[22] = system: Hs-578T
[23] = system: IGROV-1
[24] = system: K562
[25] = system: KM-20L2
[26] = system: KM12
[27] = system: LOX IMVI
[28] = system: LXFL 529
[29] = system: M14
[30] = system: M19-MEL
[31] = system: MCF7
[32] = system: MDA-MB-231
[33] = system: MDA-MB-435
[34] = system: MDA-N
[35] = system: MOLT-4
[36] = system: Malme-3M
[37] = system: NCI-H226
[38] = system: NCI-H23
[39] = system: NCI-H460
[40] = system: NCI-H522
[41] = system: NCI/ADR-RES
[42] = system: OVCAR-3
[43] = system: OVCAR-4
[44] = system: OVCAR-5
[45] = system: OVCAR-8
[46] = system: PC-3
[47] = system: RPMI-8226
[48] = system: RXF 393
[49] = system: SF-268
[50] = system: SF-295
[51] = system: SF-539
[52] = system: SK-MEL-28
[53] = system: SK-MEL-2
[54] = system: SK-MEL-5
[55] = system: SK-OV-3
[56] = system: SN12C
[57] = system: SNB-19
[58] = system: SNB-75
[59] = system: SNB-78
[60] = system: SR
[61] = system: SW-620
[62] = system: T47D
[63] = system: TK-10
[64] = system: U-251
[65] = system: UACC-257
[66] = system: UACC-62
[67] = system: UO-31
[68] = system: XF498

For `CS(=O)(=O)OCCN(CCOS(C)(=O)=O)c1ccc(C=O)cc1`, which GI50 [1] is on record?
The GI50 was 0.365 µM (active).

And the GI50 [2]?
The GI50 was 1.74 µM (inactive).

What about the GI50 [3] of the same molecule?
The GI50 was 2.89 µM (inactive).

And the GI50 [4]?
The GI50 was 0.346 µM (active).

What about the GI50 [5] of the same molecule?
Its GI50 is 13 µM (inactive).

And the GI50 [6]?
The GI50 was 0.427 µM (active).

And the GI50 [7]?
Its GI50 is 0.897 µM (active).

And the GI50 [8]?
The GI50 was 1.81 µM (inactive).

And the GI50 [9]?
The GI50 was 18.5 µM (inactive).

What about the GI50 [10] of the same molecule?
The GI50 was 8.05 µM (inactive).

And the GI50 [11]?
Its GI50 is 0.314 µM (active).

And the GI50 [12]?
The GI50 was 0.505 µM (active).

And the GI50 [13]?
Its GI50 is 7.05 µM (inactive).

What about the GI50 [14] of the same molecule?
The GI50 was 2.17 µM (inactive).

What about the GI50 [15] of the same molecule?
Its GI50 is 31.4 µM (inactive).

And the GI50 [16]?
The GI50 was 9.84 µM.

What about the GI50 [17] of the same molecule?
The GI50 was 2.07 µM (inactive).

And the GI50 [18]?
Its GI50 is 9.16 µM (inactive).

And the GI50 [19]?
Its GI50 is 1.43 µM (inactive).

What about the GI50 [20] of the same molecule?
The GI50 was 12.5 µM (inactive).

And the GI50 [21]?
The GI50 was 3.96 µM (inactive).

What about the GI50 [22] of the same molecule?
Its GI50 is 14.3 µM (inactive).

And the GI50 [23]?
Its GI50 is 12.8 µM (inactive).

What about the GI50 [24] of the same molecule?
Its GI50 is 20.1 µM (inactive).

And the GI50 [25]?
Its GI50 is 3.28 µM (inactive).

What about the GI50 [26] of the same molecule?
The GI50 was 10.4 µM (inactive).

And the GI50 [27]?
Its GI50 is 5.08 µM (inactive).

What about the GI50 [28] of the same molecule?
Its GI50 is 18.1 µM (inactive).

And the GI50 [29]?
Its GI50 is 4.55 µM (inactive).

What about the GI50 [30] of the same molecule?
The GI50 was 12.6 µM (inactive).

What about the GI50 [31] of the same molecule?
Its GI50 is 4.7 µM (inactive).

And the GI50 [32]?
The GI50 was 21.4 µM (inactive).

What about the GI50 [33] of the same molecule?
Its GI50 is 10.3 µM (inactive).

What about the GI50 [34] of the same molecule?
The GI50 was 8.95 µM (inactive).

What about the GI50 [35] of the same molecule?
Its GI50 is 0.233 µM (active).

What about the GI50 [36] of the same molecule?
Its GI50 is 8.77 µM (inactive).

And the GI50 [37]?
The GI50 was 1.84 µM (inactive).

And the GI50 [38]?
Its GI50 is 1.63 µM (inactive).

And the GI50 [39]?
Its GI50 is 0.0518 µM (active).

And the GI50 [40]?
Its GI50 is 0.195 µM (active).

And the GI50 [41]?
The GI50 was 7.1 µM (inactive).

What about the GI50 [42] of the same molecule?
The GI50 was 5.12 µM (inactive).

What about the GI50 [43] of the same molecule?
The GI50 was 13 µM (inactive).

And the GI50 [44]?
The GI50 was 3.5 µM (inactive).

And the GI50 [45]?
The GI50 was 7.35 µM (inactive).

And the GI50 [46]?
The GI50 was 19.4 µM (inactive).

And the GI50 [47]?
Its GI50 is 8.63 µM (inactive).

What about the GI50 [48] of the same molecule?
The GI50 was 0.432 µM (active).

What about the GI50 [49] of the same molecule?
Its GI50 is 2.95 µM (inactive).

And the GI50 [50]?
The GI50 was 0.774 µM (active).

And the GI50 [51]?
The GI50 was 2.18 µM (inactive).

What about the GI50 [52] of the same molecule?
Its GI50 is 17.1 µM (inactive).

What about the GI50 [53] of the same molecule?
Its GI50 is 17.1 µM (inactive).

What about the GI50 [54] of the same molecule?
The GI50 was 6.27 µM (inactive).

And the GI50 [55]?
Its GI50 is 1.14 µM (inactive).

And the GI50 [56]?
Its GI50 is 3.68 µM (inactive).

What about the GI50 [57] of the same molecule?
The GI50 was 4.22 µM (inactive).

And the GI50 [58]?
The GI50 was 1.87 µM (inactive).

And the GI50 [59]?
Its GI50 is 27.2 µM (inactive).

What about the GI50 [60] of the same molecule?
The GI50 was 0.236 µM (active).

And the GI50 [61]?
The GI50 was 14.9 µM (inactive).

What about the GI50 [62] of the same molecule?
The GI50 was 5.92 µM (inactive).

And the GI50 [63]?
Its GI50 is 2.94 µM (inactive).

What about the GI50 [64] of the same molecule?
Its GI50 is 8.07 µM (inactive).

And the GI50 [65]?
Its GI50 is 8.32 µM (inactive).

And the GI50 [66]?
Its GI50 is 1.27 µM (inactive).

What about the GI50 [67] of the same molecule?
Its GI50 is 1.11 µM (active).

And the GI50 [68]?
Its GI50 is 1.97 µM (inactive).

From ChEMBL document CHEMBL1201862, “PubChem BioAssay data set” (2004)
